Molecules are shown by their SMILES.

In this test the target is T1, Sodium/glucose cotransporter 2 (Homo sapiens) (UniProt P31639).
T1 sequence (whole entry): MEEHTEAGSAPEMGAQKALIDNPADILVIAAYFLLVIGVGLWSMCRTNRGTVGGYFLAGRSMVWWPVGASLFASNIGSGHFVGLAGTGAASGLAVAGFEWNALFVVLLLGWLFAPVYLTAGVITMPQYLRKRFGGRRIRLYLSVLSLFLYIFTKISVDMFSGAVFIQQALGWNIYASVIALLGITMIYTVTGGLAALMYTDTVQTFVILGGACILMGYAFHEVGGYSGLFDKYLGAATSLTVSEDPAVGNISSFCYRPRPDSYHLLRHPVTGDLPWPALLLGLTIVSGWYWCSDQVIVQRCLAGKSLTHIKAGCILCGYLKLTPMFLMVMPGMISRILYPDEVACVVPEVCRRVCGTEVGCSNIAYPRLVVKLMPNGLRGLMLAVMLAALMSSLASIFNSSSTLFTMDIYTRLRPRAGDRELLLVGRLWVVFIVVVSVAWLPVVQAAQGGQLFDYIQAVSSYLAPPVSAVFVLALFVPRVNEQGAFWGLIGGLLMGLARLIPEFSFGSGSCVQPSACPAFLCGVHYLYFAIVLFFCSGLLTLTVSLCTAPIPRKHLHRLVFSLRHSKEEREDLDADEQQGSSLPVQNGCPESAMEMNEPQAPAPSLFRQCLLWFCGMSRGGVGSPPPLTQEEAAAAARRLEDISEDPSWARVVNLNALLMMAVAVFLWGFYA
Put plainly: Inhibition of human SGLT2 expressed in CHO cells assessed as reduction in [14C]AMG uptake at 10 uM after 1 hr by liquid scintillation counting method relative to control. The class given is cell-based.
Regarding `CCOc1ccc(Cc2cc([C@@H]3O[C@H](CO)[C@@H](O)[C@H](O)[C@H]3O)ccc2Cl)cc1`, the inhibition was found to be 85.4%. Consider `OC[C@H]1O[C@@H](c2ccc3c(c2)[C@H](c2ccc4c(c2)OCO4)NCC3)[C@H](O)[C@@H](O)[C@@H]1O`, for which the inhibition was 49.7%.

As to `COc1ccc(C[C@@H]2NCCc3ccc([C@@H]4O[C@H](CO)[C@@H](O)[C@H](O)[C@H]4O)cc32)cc1`, the inhibition amounted to 32.1%.

The values are drawn from ChEMBL document CHEMBL3785092, “Synthesis and biological evaluation of novel tetrahydroisoquinoline-C-aryl glucosides as SGLT2 inhibitors for the treatment of type 2 diabetes” (Eur J Med Chem, 2016).
